The results in this text go back to patent US20230233532A1, “SPHINGOSINE-1-PHOSPHATE RECEPTOR 1 AGONIST AND LIPOSOMAL FORMULATIONS THEREOF” (The Penn State Research Foundation, priority 2020, published 2023).

One experiment has as its system HUVEC. Description: HUVEC monolayer model of endothelial gap formation (VE-cadherin staining). It is filed as cell-based, human. Particulars: for EC gap formation, screening of inflammatory inhibitors: FIG. 8, 5 μM; for EC gap formation induced by VEGF / EC gap formation induced by IL-8 / EC gap formation induced by BK / EC gap formation, agonist alone: 5 μM; for EC gap formation induced by VEGF: 100 ng/ml VEGF; for EC gap formation induced by IL-8: 150 ng/ml IL-8; for EC gap formation induced by BK: 0.5 μM BK; for EC gap formation, agonist alone: no inflammatory mediator. As for the experimental part:
HUVECs were seeded on coverslips coated with fibronectin (Millipore Sigma) and cultured to confluency. […] HUVECs fixed with 2% cold paraformaldehyde (Electron Microscopy Science) and treated with 0.1% triton X-100 (Fisher) were exposed to a human VE-cadherin antibody (Santa Cruz) followed by the secondary antibody conjugated with Alexa488 (Invitrogen). Coverslips were mounted to slides using the antifade mounting medium with DAPI (Vector Laboratories).

Experiment [1] relates to MAPK/ERK, PI3K/AKT, NF-κB and vascular permeability regulation pathways. Description: Off-target effects on key signaling pathways by western blotting in HUVEC. It is filed as cell-based, human. The note with it: versus DMSO control. As for the experimental part: (§1) A monolayer of HUVEC cells following varying treatments were lyzed in RIPA buffer containing protease and phosphatase inhibitors (Pierce Biotechnologies). 20 μg of cell lysate was used for western blotting and probed with antibodies according to the suppliers' recommendations to assess off target effects on several major signaling pathways. Antibodies to p-ERK, ERK, p-PI3K, PI3K, p-FAK, FAK, p-PAK1, PAK1, p-PAK2, PAK2, p-MLC, p-NF-κB, NF-κB were used to probe western blots (Cell Signaling). α-Tubulin (Millipore Sigma) was used as a loading control.

For another experiment, the target named is S1PR1 (Homo sapiens, UniProt P21453). Kind of experiment: S1P1 GPCR cell-based agonist arrestin biosensor assay (Eurofins DiscoverX). The note with it: FIG. 1C. The source says: 4-Phenyl-5-trifluoromethyl-thiophene-2-carboxylic acid (1) was first converted in situ to the corresponding acid chloride by treating with oxalyl chloride in the presence of catalytic N,N-dimethyl formamide. […] The structures of Intermediate 3 and Compound I were characterized on the basis of NMR and mass spectrometry.

Experiment [2] has as its system myosin light chain (MLC) phosphorylation. Kind of experiment: Western blotting of MLC phosphorylation in HUVEC. It is filed as cell-based, human. On the procedure:
as §1

Experiment [3] has as its system S1PR1 in HEK293A-S1P1-GFP cells. Kind of experiment: S1PR1 internalization assay. Format: cell-based. Particulars: 5 μM W146. On the procedure:
[…] cells were plated on collagen-coated coverslips (30). Cells were cultured overnight in DMEM with 2% charcoal-stripped serum. Prior to the experiment, cells were cultured in serum-free DMEM for 1.5 hours.

Experiment [4] deals with intact rat mesenteric venules. Description: Hydraulic conductivity (Lp) in individually perfused rat mesenteric microvessels. It is filed as in vivo. As for the experimental part: Experiments were undertaken on mesenteric venules from female Sprague-Dawley rats (2-3-month old, 220-250 g body weight, Sage Laboratory). Inactin hydrate was used for anesthesia through subcutaneous administration. The initial dosage of inactin was 180 mg/kg body weight and an additional 5 mg/dose given as needed. After the rat reached the appropriate plane of anesthesia, determined by the loss of the toe pinch response and the righting reflex, a midline surgical incision was made in the abdominal wall. A loop of the ileum was gently extended from the abdominal cavity and the mesentery was spread over a pillar attached to an animal tray. The upper surface of the mesentery was continuously perfused with mammalian Ringer's solution at 37° C. All experiments were carried out on venules with diameters ranging between […]. Each experiment was performed on a single vessel with one experiment per animal. Euthanasia was performed through bilateral thoracotomy while animals were under anesthesia. Microvessel permeability was assessed by measuring one of the permeability coefficients, hydraulic conductivity, Lp, using the modified […] technique. The assumptions and limitations of the method have been evaluated in detail (31-33). […] The initial water flux (Jv) per unit area of microvessel wall (S), (Jv/S)0, was calculated from the velocity of the marker cell after the vessel was occluded, the vessel radius, and the length between the marker cell and the occlusion site. Microvessel Lp was calculated from the Starling equation, Lp=(Jv/S)/ΔP, where ΔP represents the pressure difference between the hydrostatic pressure applied to the microvessel and the effective oncotic pressure generated from the albumin in the perfusate, assuming the tissue hydrostatic and oncotic pressures are negligible (31). In each experiment, baseline Lp and the stimulus-induced Lp changes were measured in the same vessel, which allows the changes to be compared with its own control. […]

For another experiment, the system named is A375M-GFP melanoma cells. Description: Experimental lung metastasis model, A375M-GFP. Format: in vivo, Athymic Foxn1nu nude mice. Particulars: 5 mg/kg intraperitoneally 6, 12 or 18 hours before cells, day 29; control 62. As for the experimental part: […] lacking Compound I (Lipo) vehicle control, for 6, 12 or 18 hours prior to intravenous injection of 1 million A375M-GFP cells through the tail vein. […] For experiments using UACC 903M-GFP and 1205Lu-GFP cells, 15 mg/kg of the nanoliposomal formulation were given 6 hours before cancer cell injection. Body weight was monitored to ensure no significant toxicity during the experimental metastasis assay. On day 29, whole lungs were removed and imaged by fluorescent microscopy to quantify the numbers of metastatic nodules in a double-blinded manner.

S1PR1, sequence (P21453 whole entry): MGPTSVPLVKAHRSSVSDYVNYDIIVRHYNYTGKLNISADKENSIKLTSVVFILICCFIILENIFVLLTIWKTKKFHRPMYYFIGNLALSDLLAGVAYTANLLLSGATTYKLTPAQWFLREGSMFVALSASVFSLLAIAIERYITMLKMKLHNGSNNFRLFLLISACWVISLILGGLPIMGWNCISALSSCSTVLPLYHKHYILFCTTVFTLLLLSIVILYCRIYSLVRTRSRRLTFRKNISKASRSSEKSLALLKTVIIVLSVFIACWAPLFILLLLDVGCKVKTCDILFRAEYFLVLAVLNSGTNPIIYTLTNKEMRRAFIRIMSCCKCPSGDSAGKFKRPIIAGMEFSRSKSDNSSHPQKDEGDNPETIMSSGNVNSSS

As for `CC(=O)N1CCN(C(=O)/C=C/c2ccc(Sc3ccccc3C(C)C)c([N+](=O)[O-])c2)CC1` [Compound A286982], the “EC gap formation, screening of inflammatory inhibitors” value in the experiment with HUVEC is listed as “did not decrease EC gap formation”.
The EC50 is the concentration at which the effect is half-maximal. Turning to `Oc1cccc(-c2noc(-c3cc(-c4ccccc4)c(C(F)(F)F)s3)n2)c1` [Compound I, 3-[5-(4-Phenyl-5-trifluoromethyl-thiophen-2-yl)-[1,2,4]oxadiazol-3-yl]-phenol], the “levels or activity of biomarker proteins in signaling pathways (off-target effects)” value in experiment [1] is “No significant changes”. The same compound registered an EC50 at S1PR1 of 43 nM. Further, in the experiment on HUVEC, the “EC gap formation induced by VEGF” value was “reduced the EC gap formation”; the “EC gap formation induced by IL-8” value is “reduced the EC gap formation”; the “EC gap formation induced by BK” value is listed as “reduced the EC gap formation”; the “EC gap formation, agonist alone” value was “did not affect EC gap formation”. The “EC gap formation, screening of inflammatory inhibitors” value in the experiment with HUVEC is “inhibited EC gap formation”. Further, in the experiment on HUVEC (confluent HUVEC monolayer), the “endothelial gap formation induced by MIC-1 and BK” value was “inhibited the endothelial gap formation”; the “endothelial gap formation induced by MIC-1 and VEGF” value was “inhibited the endothelial gap formation”. In experiment [2] (FIG. 15E), the “MLC phosphorylation induced by MIC-1 and inflammatory mediators” value was “inhibited the MLC phosphorylation”. Also, in experiment [2] (HUVEC, western blotting), the “pMLC levels raised by BK, VEGF or IL-8” value is “reverse and decrease the pMLC levels”; the “pMLC levels, Compound I alone” value is listed as “did not increase pMLC levels”.
As to `CCCCCCc1cccc(NC(=O)[C@H](N)CCP(=O)(O)O)c1` [Compound W146], the “effect of W146 on internalization mediated by Compound I and SEW2871” value in experiment [3] is recorded as “blocked”. In experiment [4] (W146 10 μM), the “effect of W146 on the formulation's inhibition of PAF-induced Lp increase” value is given as “abolished the effect of the nanoliposomal formulation”. The “effect of W146 on Compound I inhibition of BK-mediated EC gap formation” value with HUVEC (5 μM W146) is listed as “blocked the effect of Compound I”.
Take `COC(=O)c1ccc2c(c1)NC(=O)/C2=C(\Nc1ccc(N(C)C(=O)CN2CCN(C)CC2)cc1)c1ccccc1` [Nintedanib]: the “EC gap formation, screening of inflammatory inhibitors” value in the experiment on HUVEC is on record as “did not decrease EC gap formation”.
Same read-out and setting: the result for `O=C(Nc1c(Cl)cncc1Cl)c1ccc(OC(F)F)c(OCC2CC2)c1` [Roflumilast] reads “did not decrease EC gap formation”.
Take `FC(F)(F)c1cccc(-c2noc(-c3cc(-c4ccccc4)c(C(F)(F)F)s3)n2)c1` [SEW2871]: the “metastatic nodules in the lung” value with A375M-GFP melanoma cells was 17-27. Further, in experiment [4] (PAF 10 nM in presence of SEW2871 10 PM (printed), n=6), the “PAF-induced mean Lp” value was 1.73±0.15 times that of the control. In experiment [4] (SEW2871 10 PM (printed), perfusion 30 minutes), the “effect on baseline Lp” value was “did not change the baseline Lp”. In the experiment with HUVEC, the “EC gap formation induced by VEGF” value was “reduced the EC gap formation”; the “EC gap formation induced by IL-8” value is listed as “reduced the EC gap formation”; the “EC gap formation induced by BK” value is on record as “reduced the EC gap formation”; the “EC gap formation, agonist alone” value is on record as “did not affect EC gap formation”. The “EC gap formation, screening of inflammatory inhibitors” value with HUVEC is on record as “inhibited EC gap formation”. Moreover, the “endothelial gap formation induced by MIC-1 and BK” value in the experiment on HUVEC (confluent HUVEC monolayer) is “inhibited the endothelial gap formation”.
Take `C=CC[C@@H]1/C=C(\C)C[C@H](C)C[C@H](OC)[C@H]2O[C@@](O)(C(=O)C(=O)N3CCCC[C@H]3C(=O)O[C@H](/C(C)=C/[C@@H]3CC[C@@H](O)[C@H](OC)C3)[C@H](C)[C@@H](O)CC1=O)[C@H](C)C[C@@H]2OC` [Tacrolimus]: in the experiment on HUVEC, the “EC gap formation, screening of inflammatory inhibitors” value was “did not decrease EC gap formation”.
